Measurements: PubChem BioAssay AID2060910 (Molecular Pharmacology Branch, DTP, NCI, 2025)

System: 242566-281-R-J2-PDC complex spheroid viability
Experiment: Anticancer human tumor 242566-281-R-J2-PDC patient-derived pancreatic carcinoma cell line growth inhibition [RAS]
Settings: for IC50: curve of first compound; for viability, T/C: stronger effect = lower value
In short: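 Tumour cells grown as complex spheroids with HUVEC endothelial cells and mesenchymal stem cells, treated with RAS pathway inhibitor combinations. Each agent spans half-log steps from near clinical Cmax, or 10 microM where Cmax is unknown.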
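Further: spheroids exposed to compound for 7 days before readout.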
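Wherever viability, T/C is given: 100% = DMSO vehicle control wells.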

SMILES: CC(C)NCC(C(=O)N1CCN(c2ncnc3c2C(C)CC3O)CC1)c1ccc(Cl)cc1 (configuration not stated) + C=CC(=O)N1CCN(c2nc(OCC3CCCN3C)nc3c(F)c(-c4nc(N)cc(C)c4C(F)(F)F)c(Cl)cc23)C(C)C1
- IC50 (second compound 0.00316 µM): > 10 µM
- IC50 (second compound 0.01 µM): > 10 µM
- IC50 (second compound 0.0316 µM): > 10 µM
- IC50 (second compound 0.1 µM): > 10 µM
- IC50 (second compound 0.316 µM): > 10 µM
- IC50 (second compound 1 µM): > 10 µM
- viability, T/C (second compound 0.00316 µM, first compound 0.0316 µM): 115%
- viability, T/C (second compound 0.00316 µM, first compound 0.1 µM): 99.9%
- viability, T/C (second compound 0.00316 µM, first compound 0.316 µM): 106%
- viability, T/C (second compound 0.00316 µM, first compound 1 µM): 90.6%
- viability, T/C (second compound 0.00316 µM, first compound 3.16 µM): 81.9%
- viability, T/C (second compound 0.00316 µM, first compound 10 µM): 84.9%
- viability, T/C (second compound 0.01 µM, first compound 0.0316 µM): 100%
- viability, T/C (second compound 0.01 µM, first compound 0.1 µM): 122%
- viability, T/C (second compound 0.01 µM, first compound 0.316 µM): 102%
- viability, T/C (second compound 0.01 µM, first compound 1 µM): 98.7%
- viability, T/C (second compound 0.01 µM, first compound 3.16 µM): 91.2%
- viability, T/C (second compound 0.01 µM, first compound 10 µM): 89.3%
- viability, T/C (second compound 0.0316 µM, first compound 0.0316 µM): 107%
- viability, T/C (second compound 0.0316 µM, first compound 0.1 µM): 117%
- viability, T/C (second compound 0.0316 µM, first compound 0.316 µM): 90.9%
- viability, T/C (second compound 0.0316 µM, first compound 1 µM): 93.1%
- viability, T/C (second compound 0.0316 µM, first compound 3.16 µM): 90.9%
- viability, T/C (second compound 0.0316 µM, first compound 10 µM): 86.2%
- viability, T/C (second compound 0.1 µM, first compound 0.0316 µM): 91.8%
- viability, T/C (second compound 0.1 µM, first compound 0.1 µM): 104%
- viability, T/C (second compound 0.1 µM, first compound 0.316 µM): 95.1%
- viability, T/C (second compound 0.1 µM, first compound 1 µM): 89.1%
- viability, T/C (second compound 0.1 µM, first compound 3.16 µM): 87.5%
- viability, T/C (second compound 0.1 µM, first compound 10 µM): 77.7%
- viability, T/C (second compound 0.316 µM, first compound 0.0316 µM): 98.6%
- viability, T/C (second compound 0.316 µM, first compound 0.1 µM): 114%
- viability, T/C (second compound 0.316 µM, first compound 0.316 µM): 97.5%
- viability, T/C (second compound 0.316 µM, first compound 1 µM): 88%
- viability, T/C (second compound 0.316 µM, first compound 3.16 µM): 88%
- viability, T/C (second compound 0.316 µM, first compound 10 µM): 81.2%
- viability, T/C (second compound 1 µM, first compound 0.0316 µM): 99.6%
- viability, T/C (second compound 1 µM, first compound 0.1 µM): 133%
- viability, T/C (second compound 1 µM, first compound 0.316 µM): 107%
- viability, T/C (second compound 1 µM, first compound 1 µM): 101%
- viability, T/C (second compound 1 µM, first compound 3.16 µM): 77.6%
- viability, T/C (second compound 1 µM, first compound 10 µM): 82.9%
